Among the data in PubChem BioAssay (NCI) are TGI values, retold here.

Among the test systems are HCT-116 colon; SR leukemia; MDA-MB-231 breast; SK-OV-3 ovarian; CCRF-CEM leukemia; 786-0 renal; UACC-257 melanoma; A498 renal; IGROV1 ovarian; OVCAR-3 ovarian; SK-MEL-5 melanoma; SN12C renal; SNB-19 CNS; PC-3 prostate; OVCAR-5 ovarian.
Holding throughout (assay): NCI-60 cell line screen, 48 h

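Test compounds were applied to cells in 96-well plates for 48 hours at 5 doses. TGI denotes the concentration required for complete inhibition of growth.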 Where a SMILES comes first, the peptide text is derived from it. The star is where a group is joined. Cbz = O=C(OCc1ccccc1)*

`O=C(n1c(=O)n(-c2ccc(Cl)cc2)c(=O)n1C(=O)C(Cl)(Cl)Cl)C(Cl)(Cl)Cl`: the TGI with HCT-116 colon, in the assay with SR leukemia, with MDA-MB-231 breast, with SK-OV-3 ovarian, in the assay on CCRF-CEM leukemia and in the assay on 786-0 renal was greater than 100 µM each time. Moreover, the TGI in the assay on UACC-257 melanoma, with A498 renal, with IGROV1 ovarian, in the assay on OVCAR-3 ovarian, with SK-MEL-5 melanoma and with SN12C renal was greater than 100 µM each time. The TGI in the assay with SNB-19 CNS and with PC-3 prostate was greater than 100 µM throughout.

Turning to `OC(C/C(=N\N=C(/CC(O)(C(F)(F)F)C(F)(F)F)c1ccccc1)c1ccccc1)(C(F)(F)F)C(F)(F)F`, the TGI in the assay with OVCAR-5 ovarian, in the assay on HCT-116 colon, in the assay with SR leukemia, with MDA-MB-231 breast, with SK-OV-3 ovarian and with CCRF-CEM leukemia was greater than 10 µM throughout. Further, the TGI in the assay on 786-0 renal, in the assay with UACC-257 melanoma, in the assay on A498 renal, with IGROV1 ovarian, in the assay with OVCAR-3 ovarian and in the assay with SK-MEL-5 melanoma was greater than 10 µM each time. For the same compound, the TGI in the assay with SN12C renal, in the assay on SNB-19 CNS and in the assay with PC-3 prostate was greater than 10 µM throughout.

In the case of `CC(=O)OCC1OC(n2c(C)c(C(C)=O)c(-c3cccc4ccccc34)c(C#N)c2=S)C(OC(C)=O)C(OC(C)=O)C1OC(C)=O` (configuration not stated), the TGI in the assay with OVCAR-5 ovarian, in the assay on HCT-116 colon, in the assay with SR leukemia, in the assay with MDA-MB-231 breast, in the assay on SK-OV-3 ovarian and in the assay with CCRF-CEM leukemia was greater than 100 µM in each case. Also, the TGI in the assay with 786-0 renal, in the assay on UACC-257 melanoma, in the assay with A498 renal, in the assay on IGROV1 ovarian, with OVCAR-3 ovarian and with SK-MEL-5 melanoma was greater than 100 µM throughout. For the same compound, the TGI with SN12C renal, with SNB-19 CNS and in the assay on PC-3 prostate was greater than 100 µM in each case.

As to `Cc1ccc(/C(O)=C/c2nc3ccccc3[nH]c2=O)c(C)c1`, the TGI with OVCAR-5 ovarian is greater than 100 µM; in the assay with HCT-116 colon, 55.8 µM; in the assay with SR leukemia it was greater than 100 µM; in the assay on MDA-MB-231 breast, greater than 46.6 µM; in the assay on SK-OV-3 ovarian it was 33.6 µM; with CCRF-CEM leukemia it was greater than 100 µM. For the same compound, the TGI in the assay on 786-0 renal was 14.7 µM; with UACC-257 melanoma, greater than 75.9 µM; in the assay with A498 renal it was 9.12 µM; in the assay with IGROV1 ovarian, greater than 59.9 µM; in the assay on OVCAR-3 ovarian, greater than 73.7 µM; in the assay on SK-MEL-5 melanoma it was greater than 92.1 µM. Also, the TGI in the assay on SN12C renal is 69.2 µM; with SNB-19 CNS, greater than 45.9 µM; in the assay with PC-3 prostate, greater than 61.5 µM.

Take `CCOC(=O)C(CC(=O)OC)NC(=O)C(CC(=O)OC)NC(=O)C(CC(=O)OC)NC(=O)C(CC(=O)OC)NC(=O)OCc1ccccc1` (configuration not stated) (Cbz-D(OMe)D(OMe)D(OMe)D(OMe)-OEt; configuration not given here): the TGI in the assay with OVCAR-5 ovarian, with HCT-116 colon, in the assay with SR leukemia, in the assay with MDA-MB-231 breast, in the assay with 786-0 renal and in the assay with UACC-257 melanoma was greater than 100 µM each time. For the same compound, the TGI in the assay on A498 renal, in the assay with IGROV1 ovarian, with SK-MEL-5 melanoma, in the assay on SN12C renal, in the assay with SNB-19 CNS and in the assay on PC-3 prostate was greater than 100 µM in each case.

As for `Nc1ncc(CN2CCOCC2)c(-c2ccccc2O)n1`, the TGI with OVCAR-5 ovarian, with HCT-116 colon, in the assay on SR leukemia, in the assay with MDA-MB-231 breast, with SK-OV-3 ovarian and in the assay with CCRF-CEM leukemia was greater than 100 µM throughout. In addition, the TGI with 786-0 renal, in the assay with UACC-257 melanoma, with A498 renal, in the assay on IGROV1 ovarian, in the assay with OVCAR-3 ovarian and in the assay with SK-MEL-5 melanoma was greater than 100 µM in each case. Moreover, the TGI in the assay on SN12C renal and with PC-3 prostate was greater than 100 µM in each case.

For the compound `CN(C)CCNC(=O)c1cc(-c2nccn2C)nc2ccccc12`, the TGI in the assay on OVCAR-5 ovarian, in the assay on HCT-116 colon, in the assay with SR leukemia, in the assay on MDA-MB-231 breast, in the assay on CCRF-CEM leukemia and in the assay on 786-0 renal was greater than 100 µM throughout. The TGI in the assay on UACC-257 melanoma, in the assay on A498 renal, with IGROV1 ovarian, in the assay with SK-MEL-5 melanoma, in the assay on SN12C renal and with SNB-19 CNS was greater than 100 µM each time. In addition, the TGI in the assay with PC-3 prostate is greater than 100 µM.

Consider `CC(C)(C)c1cc(C(=O)/C=C/c2ccc3c(c2)CCO3)cc(C(C)(C)C)c1O`, for which the TGI in the assay on OVCAR-5 ovarian was greater than 27.6 µM; in the assay on HCT-116 colon it was greater than 33.7 µM; in the assay on SR leukemia it was 7.39 µM; in the assay with MDA-MB-231 breast, 6.54 µM; with SK-OV-3 ovarian it was greater than 80.3 µM; with CCRF-CEM leukemia, greater than 31.5 µM. In addition, the TGI with 786-0 renal is 11.2 µM; with A498 renal, 24.4 µM; in the assay with IGROV1 ovarian, greater than 100 µM; in the assay with OVCAR-3 ovarian it was greater than 100 µM; with SK-MEL-5 melanoma, 6.65 µM; with SN12C renal, greater than 33.9 µM. The TGI is greater than 82.3 µM with SNB-19 CNS and 4.8 µM in the assay on PC-3 prostate.

Turning to `O=[N+]([O-])/C=C/COCc1cc2c(cc1Br)OCO2`, the TGI in the assay with OVCAR-5 ovarian is 34.3 µM; in the assay on HCT-116 colon, 34.1 µM; with SR leukemia, 54.1 µM; in the assay with MDA-MB-231 breast, 33 µM; in the assay with SK-OV-3 ovarian, greater than 100 µM; in the assay with CCRF-CEM leukemia it was 11.5 µM. Further, the TGI with 786-0 renal was 30.6 µM; with UACC-257 melanoma, 33.3 µM; with A498 renal, 86.4 µM; in the assay with IGROV1 ovarian, greater than 100 µM; in the assay with OVCAR-3 ovarian it was 30.3 µM; in the assay on SK-MEL-5 melanoma, 37.1 µM. Further, the TGI in the assay on SN12C renal amounted to 35.7 µM; in the assay on PC-3 prostate it was 25.6 µM.

As to `COc1cc(-c2oc(C=Nc3ccccc3)c([N+](=O)[O-])c2-c2ccc(O)c(OC)c2)ccc1O`, the TGI was greater than 89.6 µM in the assay with OVCAR-5 ovarian; greater than 68.5 µM with HCT-116 colon; 9.8 µM with SR leukemia; greater than 95.7 µM with MDA-MB-231 breast; greater than 64.7 µM in the assay with SK-OV-3 ovarian; greater than 100 µM in the assay on CCRF-CEM leukemia. Further, the TGI is greater than 58.3 µM with 786-0 renal; greater than 73.6 µM in the assay with UACC-257 melanoma; 52.5 µM with IGROV1 ovarian; greater than 100 µM in the assay on OVCAR-3 ovarian; greater than 79.5 µM with SK-MEL-5 melanoma; greater than 74.4 µM in the assay with SN12C renal. Moreover, the results for the TGI in the assay with SNB-19 CNS and in the assay on PC-3 prostate were 80.1 µM and greater than 64.5 µM, respectively.

Regarding `COc1cc(C2(O)c3ccccc3C3=NCCN32)cc(OC)c1OC` (configuration not stated), the TGI with HCT-116 colon, in the assay with SR leukemia, in the assay with MDA-MB-231 breast, in the assay with SK-OV-3 ovarian, in the assay with CCRF-CEM leukemia and in the assay with 786-0 renal was greater than 100 µM throughout. For the same compound, the TGI in the assay on UACC-257 melanoma, in the assay on A498 renal, in the assay on OVCAR-3 ovarian, in the assay with SK-MEL-5 melanoma, with SN12C renal and in the assay with SNB-19 CNS was greater than 100 µM throughout. For the same compound, the TGI in the assay with PC-3 prostate is greater than 100 µM.

On to `CN1CCN(CCCCN2c3ccccc3Sc3ccc(N=[N+]=[N-])cc32)CC1`, for which the TGI with OVCAR-5 ovarian turned out to be 22.8 µM; in the assay with HCT-116 colon it was 13.7 µM; with SR leukemia, 7.07 µM; in the assay with MDA-MB-231 breast it was 15 µM; with CCRF-CEM leukemia, 7.75 µM; in the assay with 786-0 renal, 22.6 µM. The TGI with UACC-257 melanoma came to 4.22 µM; in the assay with A498 renal, 29.9 µM; with IGROV1 ovarian, 23.3 µM; in the assay on OVCAR-3 ovarian, 22.6 µM; with SK-MEL-5 melanoma, 4.62 µM; in the assay on SN12C renal, 26.1 µM. Moreover, the results for the TGI in the assay with SNB-19 CNS and in the assay on PC-3 prostate were 33.6 µM and 15.9 µM, respectively.

Consider `O=S1c2ccccc2SCSc2ccccc21`, for which the TGI is greater than 100 µM with OVCAR-5 ovarian; greater than 100 µM in the assay with HCT-116 colon; 91.1 µM with SR leukemia; greater than 100 µM in the assay with MDA-MB-231 breast; greater than 100 µM in the assay with SK-OV-3 ovarian; greater than 100 µM in the assay with 786-0 renal. The TGI in the assay on A498 renal, with OVCAR-3 ovarian, in the assay on SK-MEL-5 melanoma, in the assay on SN12C renal, in the assay on SNB-19 CNS and with PC-3 prostate was greater than 100 µM throughout.

On to `CC(=O)N1N=C(c2c(O)ccc3ccccc23)CC1c1ccc(Cl)cc1` (configuration not stated), for which the TGI in the assay with OVCAR-5 ovarian is 58 µM; in the assay on HCT-116 colon it was 28.4 µM; with SR leukemia, 28.3 µM; with MDA-MB-231 breast it was 43.5 µM; in the assay on SK-OV-3 ovarian, greater than 100 µM; in the assay with CCRF-CEM leukemia, 25.7 µM. Besides, the TGI with 786-0 renal was greater than 100 µM; in the assay with UACC-257 melanoma, greater than 100 µM; in the assay with A498 renal, 66.3 µM; in the assay on IGROV1 ovarian, 63.9 µM; in the assay on OVCAR-3 ovarian it was 32.1 µM; in the assay on SK-MEL-5 melanoma, 47 µM. Moreover, the values for the TGI in the assay with SN12C renal and in the assay with PC-3 prostate were 39.3 µM and 68.9 µM, respectively.

For the compound `CC(=O)OC[C@@H](OC(C)=O)[C@@H](OC(C)=O)[C@H]1OC[C@@H]2C[C@H]([C@H]1OC(C)=O)N(Cc1ccccc1)O2`, the TGI in the assay on OVCAR-5 ovarian, in the assay on HCT-116 colon, with SR leukemia, in the assay with MDA-MB-231 breast, in the assay on SK-OV-3 ovarian and in the assay with CCRF-CEM leukemia was greater than 100 µM throughout. Further, the TGI with 786-0 renal, in the assay with UACC-257 melanoma, in the assay on IGROV1 ovarian, in the assay on OVCAR-3 ovarian, in the assay on SK-MEL-5 melanoma and in the assay on SN12C renal was greater than 100 µM throughout. Moreover, the TGI with SNB-19 CNS and with PC-3 prostate was greater than 100 µM each time.
